The values below are quoted from earlier work in patent US7419995B2, “N-substituted benzimidazoyl c-Kit inhibitors and combinatorial benzimidazole library” (OSI Pharmaceuticals, Inc., priority 2004, dated 2008).

Counter-ions that a name gives are not always drawn.

The series deals with MO7e human leukemia cells.

`Cc1ccc(NC(=O)c2ccc(CN3CCN(C)CC3)cc2)cc1Nc1nccc(-c2cccnc2)n1` [Gleevec, imatinib mesylate]: the “GM-CSF stimulated growth of MO7e cells” value (GM-CSF stimulated) was “not affected”. Moreover, the “Kit ligand-stimulated growth of MO7e cells” value (Kit ligand-stimulated) is listed as “inhibited”. Moreover, the “apoptosis of MO7e cells” value (Kit ligand-stimulated conditions) is “induces apoptosis”.
